Reference: article PMC13286573, “Exploration of precision coregulator TR-FRET identifies diverse signatures for LXR ligands relevant to discovery of nonlipogenic ABCA1 inducers” (eLife, 2026)
“Also recorded” adds a separate entry of the source.

Assays:
[1] = test system: sterol response element (SRE); assay: SRE-luc reporter assay in HepG2 cells; type: cell-based, human; conditions: concentrations ≤1 µM
Excerpt: Our phenotypic high-throughput screen (HTS) approach to identify nonlipogenic ABCA1 Inducers (NLAI) originally used counterscreening with a SREBP1c-luciferase reporter (linked to the SREBF1 gene promoter) in human hepatocarcinoma HepG2 cells ([Ben Aissa et al., 2021]). Unwanted lipogenesis is mediated by LXR agonists via direct transcriptional activation and indirectly by the effects of SREBP1c ([Schultz et al., 2000]; [Brown and Goldstein, 1997]). SREBP1c enhances transcription of genes required for synthesis of fatty acids and TG and as the dominant isoform in liver is associated most closely with lipogenesis and TG elevation ([Brown and Goldstein, 1997]). […] Binding of SREBP1c to the sterol response element (SRE) induces transcription of lipogenic genes associated with elevated TG. To better model the lipogenic axis in hepatocytes, we use HepG2 cells stably transfected with a nanoluciferase reporter downstream of a SRE promoter (SRE-luc), activation of which requires SREBP1c maturation.
HepG2 cells were cotransfected with SRE (LDLR)-NlucP SuperPiggyBac Transposon and a separate Transposase plasmid (System Biosciences). Cells were expanded for multiple passages followed by selection with puromycin (1 μg/ml). Stable cells constitutively express GFP allowed for FACS enrichment and/or cell cloning. Initially, stable pools were compared to low expressing and high expressing enriched pools. The optimal pool was selected based on assay performance (Z’) and was grown and maintained as above, with the addition of 1.0 μg/mL of puromycin biweekly.
Cells were split into flasks containing CS medium (EMEM supplemented with 10% charcoal stripped FBS (Gibco A52567-01)) and 1% P/S and grown at 37 °C /5% CO2 for 48 hr before plating. Cells were plated in 384-well, white clear tissue culture plates (Greiner 781098) and allowed to grow at 37 °C /5% CO2 for 24 hr before medium was aspirated and compound dilutions prepared in CS medium were added. Following a 24 hr incubation, the medium was aspirated, and cells were lysed/luminescence quantified using the Nano-Glo Luciferase Assay System (Promega N1130).

ABCA1 = assay: ABCA1-luc reporter assay in CCF-STTG1 astrocytoma cells; type: cell-based, human
Excerpt: Astrocytoma CCF-STTG1 cells, stably transfected with an ABCA1-promoter linked to a luciferase response element, provide a model for ABCA1 induction in astrocytes ([Ben Aissa et al., 2021]). […] Apparent inverse agonist activity in cell-based assays can result from ‘true’ inverse agonist recruitment of corepressors or from antagonist activity towards endogenous sterol LXR agonists. Although we use serum-stripped media, antagonism of endogenous LXR agonists cannot be ruled out.
Low passage CCF-STTG1 cells (20,000 cells/well) were seeded in 96-well plates in media containing charcoal-stripped FBS and incubated at 37 °C and 5% CO2 for 24 hr prior to a 24 hr treatment. All compounds were dissolved in DMSO, and final DMSO concentrations never exceeded 1%. After a 24 hr incubation period, add a volume of ONE-GLOEX Reagent that is equal to the volume of culture medium in each well and incubate for 3–5 min on the shaker. The luminescent activity of compounds ([…], 10-fold dilution) was examined using the ONE-GLOEX assay (Promega). […] The assays were performed in duplicates for each concentration, and the EC50 values were determined from non-linear regression analysis of the dose-response curve generated in GraphPad Prism 9.

LXR [2] = assay: Corepressor (NCOR2, SMRT2) binding to LXR, CRT, statements across isoforms; type: biochemical; conditions: monoplex CRT, absence of coactivator
human volunteers = conditions: 2016, cited from earlier work
LXR [3] = test system: LXR; set-up: method as in Belorusova et al., 2019; conditions: ref Belorusova et al., 2019; cited from earlier work
LXRβ [4] = target: T1, LXRβ (Homo sapiens, UniProt P55055); assay: SRC-1 coactivator recruitment to LXRβ, coregulator TR-FRET (CRT); type: biochemical; set-up: The CRT selectivity assay incorporates GST-tagged LXR-LBD; purchased Thermo Fisher Scientific PV4660; conditions: biotin-SRC-1 CRT; read-out: Potency (EC50) for SRC-1 recruitment to LXRβ
T1 sequence (P55055 222-460 limits assumed): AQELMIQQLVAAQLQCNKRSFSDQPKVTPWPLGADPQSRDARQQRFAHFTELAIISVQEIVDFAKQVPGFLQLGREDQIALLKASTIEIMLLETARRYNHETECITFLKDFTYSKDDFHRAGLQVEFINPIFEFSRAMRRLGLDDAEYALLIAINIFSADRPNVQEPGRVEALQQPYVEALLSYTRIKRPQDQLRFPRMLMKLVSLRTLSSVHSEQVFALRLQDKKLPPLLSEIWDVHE

LXRα [5] = target: T2, LXRα (Homo sapiens, UniProt Q13133); assay: NCOR2 corepressor binding to LXRα, CRT; type: biochemical; set-up: The CRT selectivity assay incorporates GST-tagged LXR-LBD; purchased Thermo Fisher Scientific PV4657; conditions: ligand 1 µM, interpolated from concentration-response, normalized; heat map Figure 9A; read-out: NCOR2α, relative % activity at 1 μM
T2 sequence (Q13133 209-447 limits assumed): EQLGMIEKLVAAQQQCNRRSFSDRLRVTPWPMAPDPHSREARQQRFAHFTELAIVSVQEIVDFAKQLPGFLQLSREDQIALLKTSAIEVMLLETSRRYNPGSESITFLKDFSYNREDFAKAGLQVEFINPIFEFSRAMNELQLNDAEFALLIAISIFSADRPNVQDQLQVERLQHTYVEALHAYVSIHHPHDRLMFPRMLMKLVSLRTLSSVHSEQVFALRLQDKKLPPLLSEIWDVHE

LXRβ [6] = target: T1, LXRβ; assay: NCOR2 corepressor binding to LXRβ, CRT; type: biochemical; set-up: The CRT selectivity assay incorporates GST-tagged LXR-LBD; purchased Thermo Fisher Scientific PV4660; conditions: ligand 1 µM, interpolated from concentration-response, normalized; heat map Figure 9A; read-out: NCOR2β, relative % activity at 1 μM
LXRα [7] = target: T2, LXRα; assay: SMRT2 corepressor binding to LXRα, CRT; type: biochemical; set-up: The CRT selectivity assay incorporates GST-tagged LXR-LBD; purchased Thermo Fisher Scientific PV4657; conditions: ligand 1 µM, interpolated from concentration-response, normalized; heat map Figure 9A; read-out: SMRT2α, relative % activity at 1 μM
LXRβ [8] = target: T1, LXRβ; assay: SMRT2 corepressor binding to LXRβ, CRT; type: biochemical; set-up: The CRT selectivity assay incorporates GST-tagged LXR-LBD; purchased Thermo Fisher Scientific PV4660; conditions: ligand 1 µM, interpolated from concentration-response, normalized; heat map Figure 9A; read-out: SMRT2β, relative % activity at 1 μM
LXRα [9] = target: T2, LXRα; assay: Multiplex precision CRT (pCRT), SRC1 and NCOR2, LXRα; type: biochemical; set-up: The CRT selectivity assay incorporates GST-tagged LXR-LBD; purchased Thermo Fisher Scientific PV4657; conditions: presence of SRC1, saturating ligand
LXRβ [10] = target: T1, LXRβ; assay: Multiplex precision CRT (pCRT), SRC1 and NCOR2, LXRβ; type: biochemical; set-up: The CRT selectivity assay incorporates GST-tagged LXR-LBD; purchased Thermo Fisher Scientific PV4660; conditions: presence of SRC1

EC50 (LXRβ [4]): 10 nM
activity at 1 µM (LXRα [5]): 142%
activity at 1 µM (LXRβ [6]): 129%
activity at 1 µM (LXRα [7]): 152%
activity at 1 µM (LXRβ [8]): 153%
Maximal signal for NCOR2-bound LXRα in pCRT (LXRα [9]): significantly higher than zero
NCOR2 displacement from LXRβ in pCRT (LXRβ [10]): fully displaced
Compound: CC(C)(O)c1cn(-c2ccc(-c3cc(F)c(CO)c(S(C)(=O)=O)c3)cc2F)c(C(C)(C)c2c(Cl)cccc2Cl)n1 [XL041]
Efficacy of SRE activation at concentrations ≤1 µM [1]: 20–25 % of T0
Selectivity for ABCA1 induction versus SRE activation (potency correlation outliers) (ABCA1; CCF ABCA1-luc versus HepG2 SRE-luc): selectivity for ABCA1 induction
ABCA1 induction response/phenotype in CCF cells (ABCA1; normalized to T0): partial agonist response
Corepressor (NCOR2, SMRT2) displacement or stabilization, across LXR isoforms (LXR [2]): stabilized LXR complexes with corepressor bound; also recorded: strongly stabilized the corepressor-bound conformation
Cmax (human volunteers; human, 2.5 mg/kg p.o., Day 14, ref Kirchgessner et al., read-out: Cmax, drug concentration in plasma): ~30 nM
T½ (human volunteers; human, ref Kirchgessner et al.): ≈ 13 hr
Adverse effects in clinical trials (human volunteers; multi-day dosing, healthy and statin-treated subjects, ref Kirchgessner et al.): elevated plasma and liver lipids and neutropenia
ABCA1 expression in trial subjects (human volunteers; ref Katz et al., 2009, Kirchgessner et al.): increased ABCA1 expression in trial subjects
Ligand behaviour in HDX-MS analysis (H12 conformation) (LXR [3]): act as an antagonist
